For 2 molecules, IC50 and EC50 results are on record in patent US11028087B2, “2,6-disubstituted-9-cyclopentyl-9H-purines, use thereof as medicaments, and pharmaceutical compositions” (UNIVERZITA PALACKEHO V OLOMOUCI, priority 2017, dated 2021).

For test [1], the target named is T1, CDK5/p35 (Homo sapiens, UniProt Q00535).
T1 construct: purchased ProQinase GmbH
Briefly: Kinase inhibition assay with [γ-33P]ATP. The format is biochemical. To be noted: histone H1, 0.15 μM ATP. On the procedure: (§1) CDK1/Cyclin B and CDK2/Cyclin E kinases were produced in Sf9 insect cells via baculoviral infection and purified on a NiNTA column (Qiagen). CDK5/p35 and CDK7Cyclin H/MAT1, FLT3 WT, FLT3-ITD and FLT3 D835 were purchased from ProQinase GmbH. The kinase reactions were assayed with 1 mg/mL histone H1 (for CDK1, CDK2 and CDK5), (YSPTSPS)2KK peptide (for CDK7) or AGLT substrate (for FLT3) in the presence of 15/15/0.15/1.5/1 μM ATP (for CDK1/CDK2/CDK5/CDK7/FLT3), 0.05 μCi [γ-^33P]ATP and of the test compound in a final volume of 10 μL, all in a reaction buffer (60 mM HEPES-NaOH, pH 7.5, 3 mM MgCl2, 3 mM MnCl2, 3 μM Na-orthovanadate, 1.2 mM DTT, 2.5 μg/50 μl PEG20,000). The reactions were stopped by adding 5 μL of 3% aq H3PO4. Aliquots were spotted onto P-81 phosphocellulose (Whatman), washed 3× with 0.5% aq H3PO4 and finally air-dried.

The target of test [2] is T2, CDK2/Cyclin E (Homo sapiens, UniProt P24941).
T2 construct: made in house; host or cells: Sf9 insect cells, baculoviral infection
Description: Kinase inhibition assay with [γ-33P]ATP. The format is biochemical. To be noted: histone H1, 15 μM ATP; read-out: IC50 values (μM) CDK2. On the procedure: as §1

For test [3], the target named is T3, FLT3 WT (Homo sapiens, UniProt P36888).
T3 construct: purchased ProQinase GmbH
T3 sequence (P36888 27-993): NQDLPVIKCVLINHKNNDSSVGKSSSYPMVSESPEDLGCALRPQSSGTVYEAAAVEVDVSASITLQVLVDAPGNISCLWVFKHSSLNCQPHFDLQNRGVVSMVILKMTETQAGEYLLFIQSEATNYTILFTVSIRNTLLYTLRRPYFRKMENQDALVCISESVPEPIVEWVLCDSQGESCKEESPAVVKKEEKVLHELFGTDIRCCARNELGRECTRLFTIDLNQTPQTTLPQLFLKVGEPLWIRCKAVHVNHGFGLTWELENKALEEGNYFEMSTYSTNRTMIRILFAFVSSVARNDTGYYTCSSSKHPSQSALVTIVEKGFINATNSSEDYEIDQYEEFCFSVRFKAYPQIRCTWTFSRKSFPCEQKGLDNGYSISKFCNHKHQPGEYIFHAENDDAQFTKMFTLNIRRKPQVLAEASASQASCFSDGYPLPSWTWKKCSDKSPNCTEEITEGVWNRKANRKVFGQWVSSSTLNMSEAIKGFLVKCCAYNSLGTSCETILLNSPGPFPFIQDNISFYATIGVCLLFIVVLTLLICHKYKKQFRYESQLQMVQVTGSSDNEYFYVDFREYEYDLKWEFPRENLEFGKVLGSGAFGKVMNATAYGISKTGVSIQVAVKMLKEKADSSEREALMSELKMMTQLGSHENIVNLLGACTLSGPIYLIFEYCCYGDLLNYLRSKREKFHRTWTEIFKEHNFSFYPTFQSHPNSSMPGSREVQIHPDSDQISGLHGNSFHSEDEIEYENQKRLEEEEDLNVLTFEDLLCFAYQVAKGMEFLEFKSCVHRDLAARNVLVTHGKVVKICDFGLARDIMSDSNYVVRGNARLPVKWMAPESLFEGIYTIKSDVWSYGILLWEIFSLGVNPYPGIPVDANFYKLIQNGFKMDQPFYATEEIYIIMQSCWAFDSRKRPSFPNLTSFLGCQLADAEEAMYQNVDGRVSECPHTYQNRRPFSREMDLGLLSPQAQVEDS
Briefly: Kinase inhibition assay with [γ-33P]ATP. To be noted: AGLT substrate, 1 μM ATP. The format is biochemical. On the procedure: as §1

Test [4] concerns the target T4, CDK1/Cyclin B (Homo sapiens, UniProt P06493).
T4 construct: made in house; host or cells: Sf9 insect cells, baculoviral infection
Briefly: Kinase inhibition assay with [γ-33P]ATP. The format is biochemical. To be noted: histone H1, 15 μM ATP. The procedure:
as §1

In test [5] the test system is Kasumi-1 (acute myeloid leukemia, KIT mutation Asn822Lys). Briefly: Calcein AM cytotoxicity assay. It is filed as cell-based. To be noted: Homo sapiens, 72 h; Kasumi-1; Calcein AM, three days; read-out: EC50 values (μM) Kasumi-1. From the text:
(§2) Cytotoxicity of the compounds is the major property determining their anticancer effect in vivo. One of the parameters used, as the basis for cytotoxicity assays, is the integrity of cytoplasmic membrane of viable cells. For example, a microtiter assay, which uses acetomethoxy derivate of calcein (Calcein AM), is widely used for evaluation of cell proliferation and cytotoxicity. This assay is used in drug screening programs and in chemosensitivity testing. Intracellular esterases of viable cells convert calcein AM to green-fluorescent calcein of which signal corresponds to the number of viable cells in the culture.
(§3) We have been using the following cell lines: MV4-11 (acute myeloid leukemia, FLT3-ITD positive), MOLM-13 (acute myeloid leukemia, FLT3-ITD positive), THP-1 (acute myeloid leukemia, wt FLT3), U937 (monocytic leukemia, wt FLT3), EOL-1 (eosinophilic leukaemia, carrying the fusion FIP1L1-PDGFRA), H1703 (non-small cell lung carcinoma, PDGFRA amplification). They were maintained in RPMI-1640 supplemented with 10% fetal bovine serum, penicillin (100 U/ml) and streptomycin (100 μg/ml). Kasumi-1 (acute myeloid leukemia, KIT mutation Asn822Lys) cells were cultivated in RPMI-1640 supplemented with 15% fetal bovine serum, penicillin (100 U/ml) and streptomycin (100 μg/ml). K562 and MCF-7 cell lines were maintained in DMEM supplemented with 10% fetal bovine serum, penicilin (100 U/ml) and streptomycin (100 μg/ml). All cell lines were cultivated at 37° C. in 5% CO2. For cytotoxicity assays, cells were seeded in appropriate densities into 96 well plates and the next day tested compounds were added at various concentrations in triplicates. Three days after drug addition, Calcein AM solution (final concentration 1 μg/ml; Thermo Scientific, USA) was added into each well and incubated for 1 h. After this incubation period, fluorescence of the live cells was measured at 485 nm/538 nm (ex/em) with a Fluoroskan Ascent microplate reader (Labsystems).

For test [6], the system named is MV4-11 (acute myeloid leukemia, FLT3-ITD positive). Description: Calcein AM cytotoxicity assay. To be noted: Homo sapiens, 72 h; MV4-11; Calcein AM, three days after drug addition; read-out: EC50 values (μM) MV4-11. It is filed as cell-based.
Excerpt: as §2
as §3, with “They were maintained in RPMI-1640 supplemented with 10% fetal bovine serum, penicillin (100 U/ml) and streptomycin (100 μg/ml). Kasumi-1 (acute myeloid leukemia, KIT mutation Asn822Lys) cells were cultivated in RPMI-1640 supplemented with 15% fetal bovine serum, penicillin (100 U/ml) and streptomycin (100 μg/ml).” left out, “h.” for “h. After this incubation period, fluorescence of the live cells was measured at 485 nm/538 nm (ex/em) with a Fluoroskan Ascent microplate reader (Labsystems).”

Test [7] relates to K562. Briefly: Calcein AM cytotoxicity assay. The format is cell-based. To be noted: Homo sapiens, 72 h; K562; Calcein AM, three days; read-out: EC50 values (μM) K562.
Excerpt: as §2
as §3, with “They were maintained in RPMI-1640 supplemented with 10% fetal bovine serum, penicillin (100 U/ml) and streptomycin (100 μg/ml). Kasumi-1 (acute myeloid leukemia, KIT mutation Asn822Lys) cells were cultivated in RPMI-1640 supplemented with 15% fetal bovine serum, penicillin (100 U/ml) and streptomycin (100 μg/ml).” left out, “h.” for “h. After this incubation period, fluorescence of the live cells was measured at 485 nm/538 nm (ex/em) with a Fluoroskan Ascent microplate reader (Labsystems).”

In test [8] the test system is MOLM-13 (acute myeloid leukemia, FLT3-ITD positive). Briefly: Calcein AM cytotoxicity assay. The format is cell-based. To be noted: Homo sapiens, 72 h; MOLM-13; Calcein AM, three days; read-out: EC50 values (μM) MOLM-13.
Excerpt: as §2
as §3, with “They were maintained in RPMI-1640 supplemented with 10% fetal bovine serum, penicillin (100 U/ml) and streptomycin (100 μg/ml). Kasumi-1 (acute myeloid leukemia, KIT mutation Asn822Lys) cells were cultivated in RPMI-1640 supplemented with 15% fetal bovine serum, penicillin (100 U/ml) and streptomycin (100 μg/ml).” left out, “h.” for “h. After this incubation period, fluorescence of the live cells was measured at 485 nm/538 nm (ex/em) with a Fluoroskan Ascent microplate reader (Labsystems).”

The subject of test [9] is EOL-1 (eosinophilic leukaemia, carrying the fusion FIP1L1-PDGFRA). Description: Calcein AM cytotoxicity assay. It is filed as cell-based. To be noted: Homo sapiens, EOL1, 72 h; EOL-1; Calcein AM, three days; read-out: EC50 values (μM) EOL-1.
Excerpt: as §2
as §3, with “They were maintained in RPMI-1640 supplemented with 10% fetal bovine serum, penicillin (100 U/ml) and streptomycin (100 μg/ml). Kasumi-1 (acute myeloid leukemia, KIT mutation Asn822Lys) cells were cultivated in RPMI-1640 supplemented with 15% fetal bovine serum, penicillin (100 U/ml) and streptomycin (100 μg/ml).” left out, “h.” for “h. After this incubation period, fluorescence of the live cells was measured at 485 nm/538 nm (ex/em) with a Fluoroskan Ascent microplate reader (Labsystems).”

Test [10] has as its system THP-1 (acute myeloid leukemia, wt FLT3). Briefly: Calcein AM cytotoxicity assay. It is filed as cell-based. To be noted: Homo sapiens, 72 h; THP-1; Calcein AM, three days; read-out: EC50 values (μM) THP-1.
Excerpt: as §2
as §3, with “They were maintained in RPMI-1640 supplemented with 10% fetal bovine serum, penicillin (100 U/ml) and streptomycin (100 μg/ml). Kasumi-1 (acute myeloid leukemia, KIT mutation Asn822Lys) cells were cultivated in RPMI-1640 supplemented with 15% fetal bovine serum, penicillin (100 U/ml) and streptomycin (100 μg/ml).” left out, “h.” for “h. After this incubation period, fluorescence of the live cells was measured at 485 nm/538 nm (ex/em) with a Fluoroskan Ascent microplate reader (Labsystems).”

Test [11] has as its system MCF-7. Description: Calcein AM cytotoxicity assay. It is filed as cell-based. To be noted: Homo sapiens, MCF7, 72 h; MCF-7; Calcein AM, three days; read-out: EC50 values (μM) MCF-7.
Excerpt: as §2
as §3, with “They were maintained in RPMI-1640 supplemented with 10% fetal bovine serum, penicillin (100 U/ml) and streptomycin (100 μg/ml). Kasumi-1 (acute myeloid leukemia, KIT mutation Asn822Lys) cells were cultivated in RPMI-1640 supplemented with 15% fetal bovine serum, penicillin (100 U/ml) and streptomycin (100 μg/ml).” left out, “h.” for “h. After this incubation period, fluorescence of the live cells was measured at 485 nm/538 nm (ex/em) with a Fluoroskan Ascent microplate reader (Labsystems).”

The subject of test [12] is U937 (monocytic leukemia, wt FLT3). Description: Calcein AM cytotoxicity assay. It is filed as cell-based. To be noted: Homo sapiens, U-937, 72 h; U937; Calcein AM, three days; read-out: EC50 values (μM) U937.
Excerpt: as §2
as §3, with “They were maintained in RPMI-1640 supplemented with 10% fetal bovine serum, penicillin (100 U/ml) and streptomycin (100 μg/ml). Kasumi-1 (acute myeloid leukemia, KIT mutation Asn822Lys) cells were cultivated in RPMI-1640 supplemented with 15% fetal bovine serum, penicillin (100 U/ml) and streptomycin (100 μg/ml).” left out, “h.” for “h. After this incubation period, fluorescence of the live cells was measured at 485 nm/538 nm (ex/em) with a Fluoroskan Ascent microplate reader (Labsystems).”

T4 sequence (P06493 whole entry, species assumed): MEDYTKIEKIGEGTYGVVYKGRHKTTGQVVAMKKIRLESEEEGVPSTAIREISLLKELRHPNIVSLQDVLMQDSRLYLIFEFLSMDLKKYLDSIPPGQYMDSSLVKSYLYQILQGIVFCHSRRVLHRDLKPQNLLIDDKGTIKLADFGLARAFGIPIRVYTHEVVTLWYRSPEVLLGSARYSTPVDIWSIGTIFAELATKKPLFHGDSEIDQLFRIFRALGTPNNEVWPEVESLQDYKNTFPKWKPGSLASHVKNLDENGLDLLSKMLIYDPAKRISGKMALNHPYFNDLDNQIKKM
T4 sequence (P14635 whole entry partner, species assumed): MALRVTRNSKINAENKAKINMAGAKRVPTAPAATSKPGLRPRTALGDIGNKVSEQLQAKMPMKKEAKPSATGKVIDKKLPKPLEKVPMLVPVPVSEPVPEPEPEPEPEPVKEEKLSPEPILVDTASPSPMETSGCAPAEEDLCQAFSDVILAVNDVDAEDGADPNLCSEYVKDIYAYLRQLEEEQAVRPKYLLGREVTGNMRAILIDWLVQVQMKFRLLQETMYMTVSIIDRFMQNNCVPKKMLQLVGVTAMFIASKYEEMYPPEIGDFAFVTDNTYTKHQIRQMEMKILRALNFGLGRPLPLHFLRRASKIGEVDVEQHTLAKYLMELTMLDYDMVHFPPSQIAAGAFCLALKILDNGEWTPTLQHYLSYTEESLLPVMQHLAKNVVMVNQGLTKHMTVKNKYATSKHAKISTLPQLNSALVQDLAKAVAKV
T1 sequence (Q00535 whole entry): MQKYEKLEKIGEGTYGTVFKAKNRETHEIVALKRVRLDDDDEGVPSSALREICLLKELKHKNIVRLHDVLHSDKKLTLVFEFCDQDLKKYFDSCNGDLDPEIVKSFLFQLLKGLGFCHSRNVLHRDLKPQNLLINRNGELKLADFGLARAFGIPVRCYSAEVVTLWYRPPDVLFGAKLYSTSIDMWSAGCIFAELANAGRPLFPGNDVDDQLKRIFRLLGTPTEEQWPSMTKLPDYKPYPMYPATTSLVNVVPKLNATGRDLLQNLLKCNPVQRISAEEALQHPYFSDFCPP
T1 sequence (Q15078 whole entry partner): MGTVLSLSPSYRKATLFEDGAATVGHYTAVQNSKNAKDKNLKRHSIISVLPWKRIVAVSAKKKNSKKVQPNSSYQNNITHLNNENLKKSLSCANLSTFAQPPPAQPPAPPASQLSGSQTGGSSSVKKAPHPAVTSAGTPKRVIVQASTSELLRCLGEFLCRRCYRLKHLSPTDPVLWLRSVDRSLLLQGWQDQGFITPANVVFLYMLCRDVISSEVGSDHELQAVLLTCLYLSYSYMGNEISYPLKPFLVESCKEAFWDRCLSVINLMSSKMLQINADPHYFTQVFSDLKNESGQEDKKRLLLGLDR

For the molecule `NCCCCCCNc1nc(Nc2ccc(CN3CCOCC3)cc2)c2ncn(C3CCCC3)c2n1` [Compound 38], the half-maximal inhibitory concentration (IC50) (usually the concentration that inhibits the measured activity by half) in [1] was found to be 8.16 µM; in test [2] it was 3.56 µM; in test [3] it was 0.021 µM; in [4], 6.16 µM. Moreover, the EC50 (as a rule, the concentration giving half of the maximal effect) in [5] was 1.23 µM; in [6] it was 0.086 µM; in test [7], 4.57 µM; in test [8], 0.064 µM; in test [9], 0.276 µM; in test [10], 3.59 µM. Besides, the values for the EC50 in [11] and in [12] were 5.55 µM and 2.92 µM, respectively.
For `NCCCCCNc1nc(Nc2ccc(CN3CCOCC3)cc2)c2ncn(C3CCCC3)c2n1` [Compound 267], the IC50 in test [1] was found to be 3.71 µM; in test [2], 2.04 µM; in test [3], 0.025 µM; in test [4], 6.05 µM. For the same molecule, the EC50 is 1.25 µM in [5]; 0.032 µM in test [6]; 1.79 µM in [7]; 0.02 µM in [8]; 0.071 µM in test [9]; 2.42 µM in [10]. Also, the EC50 is 2.27 µM in test [11] and 3.63 µM in test [12].
